In patent US6417176B2, “Arylsulfonanilide phosphates” (Tularik, Inc., priority 1998, dated 2002):

System: HeLa cells
Conditions: 72 hours of treatment, 50% growth inhibition

Substance: 5-(Pentafluorophenylsulfonamido)-2-methoxyphenyl phosphate [Example 1]
- GI50: 15 nM
